In patent US20060100280A1, “Cell growth regulator” (Chugai Seiyaku Kabushiki Kaisha, priority 2002, published 2006):

Columns and labels:
[1] = system: human colon cancer cell line HT29; experiment: Cell growth test, MTS assay, HT29; type: cell-based
Experimental: (§1) Accordingly, L-2-phenylglycine is considered to be a competitive inhibitor with strong specificity to ATB^0,+ (Hatanaka et al. 2002, J. Pharm. Pharmacol.). The present inventors prepared 20 mM L-2-phenylglycine solution by dissolving L-2-phenylglycine in a medium containing 0% FBS. IMDM was used as the medium for SW60 and HT29; and RPMI was used for MCF-7. This solution was diluted with the medium to prepare L-2-phenylglycine solutions of 2, 0.2, 0.02, and 0.002 mM.
(§2) Human colon cancer cell lines SW60 and HT29, and breast cancer cell line MCF-7 were prepared with medium to form 4×10^6, 1.6×10^6, and 1.6×10^6 cells/mL, respectively. 25 μL/well of the suspensions thus obtained (1×10^5, […], respectively) were plated onto a 96-well plate, which already contained 25 μL/well of medium comprising 12% FBS. 50 μL of L-2-phenylglycine solution was then added to each well. The cells were cultured in a 5% CO2 incubator, and surviving cell count was quantified by MTS assay on the fourth day of culturing.

ATB^0,+ = target: T1, ATB^0,+ (Canis lupus familiaris, UniProt A0A8I3P2T9); conditions: canine small intestinal brush border membrane; Hatanaka et al. 2002, J. Pharm. Pharmacol.; cited from earlier work
T1 construct: from tissue; host or cells: canine small intestinal brush border membrane (finding quoted from Hatanaka et al. 2002, J. Pharm. Pharmacol.)
T1 sequence (A0A8I3P2T9 1-639): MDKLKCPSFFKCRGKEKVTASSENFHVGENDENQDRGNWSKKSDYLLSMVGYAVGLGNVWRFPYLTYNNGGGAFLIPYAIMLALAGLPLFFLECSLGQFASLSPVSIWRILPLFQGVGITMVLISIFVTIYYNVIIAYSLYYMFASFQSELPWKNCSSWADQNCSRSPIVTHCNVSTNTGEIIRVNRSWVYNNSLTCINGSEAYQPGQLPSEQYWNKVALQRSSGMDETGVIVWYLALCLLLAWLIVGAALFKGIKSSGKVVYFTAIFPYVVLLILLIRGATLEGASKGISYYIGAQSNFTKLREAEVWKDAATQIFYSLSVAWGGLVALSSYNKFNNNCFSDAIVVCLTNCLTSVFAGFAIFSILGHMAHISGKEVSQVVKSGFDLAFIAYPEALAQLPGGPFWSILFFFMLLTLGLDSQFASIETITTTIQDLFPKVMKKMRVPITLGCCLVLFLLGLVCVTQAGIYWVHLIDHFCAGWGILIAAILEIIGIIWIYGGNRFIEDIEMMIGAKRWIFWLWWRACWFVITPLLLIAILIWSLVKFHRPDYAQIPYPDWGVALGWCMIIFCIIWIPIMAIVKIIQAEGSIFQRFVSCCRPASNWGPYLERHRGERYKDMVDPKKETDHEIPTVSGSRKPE

[2] = system: human colon cancer cell line SW60; experiment: Cell growth test, MTS assay, SW60; type: cell-based; conditions: SW60, surviving cell count by MTS on fourth day of culturing
Experimental: as §1, §2

[3] = system: breast cancer cell line MCF-7; experiment: Cell growth test, MTS assay, MCF-7; type: cell-based, human
Experimental: as §1, §2

In the case of N[C@H](C(=O)O)c1ccccc1 [L-2-phenylglycine], the Cell growth suppression ([1]; HT29, in the presence of 10 μM, reached equilibrium, MTS on fourth day) is listed as “approximately 10%”, the Cell growth suppression ([1]; HT29, surviving cell count by MTS on fourth day of culturing) is listed as “concentration-dependent cell growth suppression was observed” and the “Affinity compared with L-alanine and L-phenylalanine” value (ATB^0,+) is listed as “stronger affinity”. For the same compound, the Cell growth suppression [2] was “could not be observed”, the Cell growth suppression ([3]; MCF-7, in the presence of 1 mM, MTS on fourth day) was “approximately 10%” and the Cell growth suppression ([3]; MCF-7, surviving cell count by MTS on fourth day of culturing) was “concentration-dependent cell growth suppression was observed”.
